# Laboratory results from patent US20240425710A1, “PEPTIDE-BASED BIOINK COMPOSITIONS” (Ramot at Tel-Aviv University Ltd., priority 2022, published 2024).
# The star is where a group is joined. Fmoc = O=C(OCC1c2ccccc2-c2ccccc21)*
# Columns and labels:
# Type in all cases: physicochemical
# [1] = Time sweep rheology of peptide hydrogels and hybrid hydrogels; conditions: 5 Hz; for G′/G″ / G′ (storage modulus) / G″ (loss modulus): hydrogels 5 g·L−1, time sweep 0.5% strain; for G′ (storage modulus): after 4 hours of gelation; for G′ (storage modulus) / G″ (loss modulus): room temperature
# Procedure: Rheological measurements: Rheological analysis was performed using an AR-G2 controlled rheometer (TA Instruments, New Castle, DA, USA). Oscillatory strain (0.01-100%) and frequency sweep (0.01-100 Hz) were conducted on 100 μL samples of pre gelated disks, 8 mm in diameter. The measurement was conducted with an 8 mm geometry (resulting in a gap size of 1 mm) at room temperature, in order to define the viscoelastic region in which the oscillatory test was performed.
# Time-sweep oscillatory analyses used a constant a frequency of 5 Hz and a strain of 0.5%. Freshly prepared samples (220 μL) were placed under a 20 mm parallel plate geometry (resulting in a gap of 0.6 mm) at room temperature to determine the G′ (storage modulus) and G″, (loss modulus) for each sample.
# The in situ kinetics of the hydrogels formation and their mechanical properties were characterized by time sweep measurements over 4 hours at a fixed strain of 0.5% and frequency of 5 Hz, and the results are presented in FIGS. 3A-B.
# [2] = TEM imaging of hydrogel fibrils; conditions: hydrogels 5 g·L−1
# Procedure: Transmission electron microscopy (TEM): Samples (10 μl) were placed on copper grids (400 mesh) covered with a carbon-stabilized Formvar film (EMS, BNFFA1000-Cu). After 2 minutes, excess gel was removed, and the grids were negatively stained with 10 μl of UranylLess staining solution for 1 minute. Finally, excess fluid was removed, and the samples were viewed in a JEM 1400plus electron microscope operating at 80 kV.
# [3] = Hydrogel formation, inverted tubes after overnight gelation; conditions: single peptide, 5 g·L−1 in water from DMSO stock
# Procedure: Preparation of hydrogels: Stock solutions of each of Fmoc-FF, PepA and PepB were prepared by dissolving the respective peptides in dimethyl sulfoxide (DMSO) at a concentration of 100 gram/liter (g·L^−1). The hydrogels were prepared by diluting the stock solution in double distilled water to a final concentration of 5 grams/Liter (5 g·L^−1), to thereby obtain a hydrogel formulation. The mixture was vortexed for 2 seconds and then incubated at room temperature until gelation occurred, thereby providing a hydrogel bioink composition.
# Hydrogels made of a single peptide and hybrid hydrogels made of two peptides were prepared using the solvent switch method by dissolving the monomers in DMSO and then diluting the stock solutions into water to a final concentration of 5 g-L.
# [4] = Absorbance kinetics of the hydrogel formation (turbidity at 400 nm)
# Procedure: Absorbance kinetics of the hydrogel formation: Samples of 100 μL of Fmoc-FF, PegA, PepB formulations and the co-assembled hydrogels (bioink compositions) were placed into a 96-well plate. Absorbance at 400 nm was measured every 30 seconds using a TECAN Infinite M2000PRO plate reader for a total of 4 hours.
# To further evaluate the impact of co-assembly on gelation kinetics, the absorbance spectra of the hybrid hydrogels compared to the Fmoc-FF hydrogel at 400 nm was monitored over time and the results are presented in FIGS. 8A-B.
G′/G″ [1],G′ (storage modulus) [1],G″ (loss modulus) [1],fibril diameter [2],hydrogel formation [3],"time to gelation / plateau of hydrogel formation ([1]; time sweep over 4 hours, 0.5% strain, 5 g·L−1)",time to form a clear hydrogel (absorbance drop) ([4]; absorbance at 400 nm monitored over time),"OD value reached ([4]; absorbance at 400 nm, minimum after clearing)",Substance
3,157 Pa,42 Pa,9 nm,formed a weak hydrogel,,,,Fmoc-Phe-Phe-EG2—COOH [PepA]
0,1 Pa,1 Pa,,did not form a hydrogel at all,,,,Fmoc-Phe-Phe-EG6-COOH [PepB]
37,9552 Pa,251 Pa,16 nm,rigid and stable,≤ 4 min,within a few minutes,0.1 OD,"Fmoc-Phe-Phe-OH [Fmoc-FF, reference compound]"
